From PubChem BioAssay AID1259407 (Chemical Carcinogenesis Research Information System (CCRIS), 2018) come the findings set out here.

Calls of active or inactive are those of the source. No rule for the calls is given here.

The test system of the data set is CCRIS mutagenicity, Ames/micronucleus/aberration tests. In words: CCRIS mutagenicity studies. The note with it: Test System: AMES SALMONELLA TYPHIMURIUM, Method: PREINCUBATION

For `CC(O)CBr` (stereo unspecified), the mutagenic call runs as follows: (Strain/Indicator: TA97, Metabolic Activation: HAMSTER, LIVER, S-9, AROCLOR 1254 (10%)) “inactive; negative”; (Strain/Indicator: TA97, Metabolic Activation: NONE) “inactive; negative”; (Strain/Indicator: TA97, Metabolic Activation: RAT, LIVER, S-9, AROCLOR 1254 (10%)) “inactive; negative”; (Strain/Indicator: TA98, Metabolic Activation: HAMSTER, LIVER, S-9, AROCLOR 1254 (10%)) “inactive; negative”; (Strain/Indicator: TA98, Metabolic Activation: RAT, LIVER, S-9, AROCLOR 1254 (10%)) “inactive; negative”; (Strain/Indicator: TA100, Metabolic Activation: HAMSTER, LIVER, S-9, AROCLOR 1254 (10%)) “inactive; negative”. For the same molecule, the mutagenic call (Strain/Indicator: TA100, Metabolic Activation: NONE) is “active; positive”; the mutagenic call (Strain/Indicator: TA100, Metabolic Activation: RAT, LIVER, S-9, AROCLOR 1254 (10%)) is “active; positive”; the mutagenic call (Strain/Indicator: TA1535, Metabolic Activation: HAMSTER, LIVER, S-9, AROCLOR 1254 (10%)) was “active; positive”; the mutagenic call (Strain/Indicator: TA1535, Metabolic Activation: NONE) was “active; positive”; the mutagenic call (Strain/Indicator: TA1535, Metabolic Activation: RAT, LIVER, S-9, AROCLOR 1254 (10%)) was “active; positive”.
